# According to patent US11136317B2, “NADPH oxidase 4 inhibitors” (ACTELION PHARMACEUTICALS LTD, priority 2015, dated 2021):
# Target: T1, human NOX4 (Homo sapiens, UniProt Q9NPH5)
# T1 construct: The full-length human NOX4 (NM_016931.3) transcript was cloned; expressed in transfected cells
# T1 sequence (Q9NPH5 1-578): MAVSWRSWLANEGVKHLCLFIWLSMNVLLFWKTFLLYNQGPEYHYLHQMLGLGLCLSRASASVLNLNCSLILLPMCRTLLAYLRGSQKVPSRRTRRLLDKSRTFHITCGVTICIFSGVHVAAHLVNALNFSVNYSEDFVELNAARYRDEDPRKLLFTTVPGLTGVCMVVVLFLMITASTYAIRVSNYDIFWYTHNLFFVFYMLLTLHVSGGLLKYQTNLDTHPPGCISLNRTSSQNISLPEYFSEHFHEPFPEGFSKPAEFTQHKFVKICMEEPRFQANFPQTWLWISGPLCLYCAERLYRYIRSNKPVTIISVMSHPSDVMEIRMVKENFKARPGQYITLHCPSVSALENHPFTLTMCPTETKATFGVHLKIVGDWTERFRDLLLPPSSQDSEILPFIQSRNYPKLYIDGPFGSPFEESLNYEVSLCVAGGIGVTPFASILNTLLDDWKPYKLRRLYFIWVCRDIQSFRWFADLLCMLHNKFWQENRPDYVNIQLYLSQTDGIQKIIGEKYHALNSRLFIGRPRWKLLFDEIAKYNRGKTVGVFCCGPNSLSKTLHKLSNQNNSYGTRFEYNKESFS
# T1 sequence (P13498 1-195 partner): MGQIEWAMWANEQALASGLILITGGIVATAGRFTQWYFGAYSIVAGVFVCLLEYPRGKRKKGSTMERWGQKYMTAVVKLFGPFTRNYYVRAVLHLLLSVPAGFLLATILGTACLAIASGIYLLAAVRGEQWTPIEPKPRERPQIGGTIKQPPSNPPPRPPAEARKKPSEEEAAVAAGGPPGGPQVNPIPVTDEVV
# Assay: Amplex Red activity assay (cellular H2O2 formation in hNOX4 T-REx-293 cells)
# Assay type: cell-based
# Details: tet-induced 24 h, extracellular H2O2 by Amplex Red, 60 min 25° C., geometric mean if determined several times
# How it was run: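 Tet-induced (1 μg/mL, 24 h) HEK293 T-REx cells stably expressing full-length human NOX4, 20 000 cells/well, exposed to compounds (10 concentrations, 50 μM to 100 nM; 1.25% DMSO) for 60 min at 25°C. Extracellular H2O2 detected by Amplex Red resorufin fluorescence (ex 550/em 600 nm) versus vehicle; IC50 calculated.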
row,Compound,IC50
1,"O=C(Nc1ccc2oc(N3CCCCC3)nc2c1)c1ccc2c(c1)CCCO2 [Example 148, Chroman-6-carboxylic acid (2-piperidin-1-yl-benzooxazol-5-yl)-amide]",1880 nM
2,"O=C(Nc1ccc2oc(N3CCC(F)(F)CC3)nc2c1)c1ccc2c(c1)CCCO2 [Example 149, Chroman-6-carboxylic acid [2-(4,4-difluoro-piperidin-1-yl)-benzooxazol-5-yl]-amide]",1430 nM
3,"O=C(Nc1ccc2oc(N3CCCC(F)(F)C3)nc2c1)c1ccc2c(c1)CCCO2 [Example 150, Chroman-6-carboxylic acid [2-(3,3-difluoro-piperidin-1-yl)-benzooxazol-5-yl]-amide]",2200 nM
4,"O=C(Nc1ccc2oc(N3CCC(O)CC3)nc2c1)c1ccc2c(c1)CCCO2 [Example 151, Chroman-6-carboxylic acid [2-(4-hydroxy-piperidin-1-yl)-benzooxazol-5-yl]-amide]",1410 nM
5,"COC1CCN(c2nc3cc(NC(=O)c4ccc5c(c4)CCCO5)ccc3o2)CC1 [Example 152, Chroman-6-carboxylic acid [2-(4-methoxy-piperidin-1-yl)-benzooxazol-5-yl]-amide]",1350 nM
6,"O=C(Nc1ccc2oc(N3CCC4(CC3)COC4)nc2c1)c1ccc2c(c1)CCCO2 [Example 153, Chroman-6-carboxylic acid [2-(2-oxa-7-aza-spiro[3.5]non-7-yl)-benzooxazol-5-yl]-amide]",1300 nM
7,"O=C(Nc1ccc2oc(N3CCCC4(COC4)C3)nc2c1)c1ccc2c(c1)CCCO2 [Example 154, Chroman-6-carboxylic acid [2-(2-oxa-6-aza-spiro[3.5]non-6-yl)-benzooxazol-5-yl]-amide]",1130 nM
8,"O=C(Nc1ccc2oc(N3CCOCC3)nc2c1)c1ccc2c(c1)CCCO2 [Example 155, Chroman-6-carboxylic acid (2-morpholin-4-yl-benzooxazol-5-yl)-amide]",756 nM
9,"CN1CCN(c2nc3cc(NC(=O)c4ccc5c(c4)CCCO5)ccc3o2)CC1 [Example 156, Chroman-6-carboxylic acid [2-(4-methyl-piperazin-1-yl)-benzooxazol-5-yl]-amide]",1790 nM
10,"CCN(CC)c1nc2cc(NC(=O)c3ccc4c(c3)CCCO4)ccc2o1 [Example 157, Chroman-6-carboxylic acid (2-diethylamino-benzooxazol-5-yl)-amide]",2030 nM
11,"O=C(Nc1ccc2oc(N(C3CC3)C3COC3)nc2c1)c1ccc2c(c1)CCCO2 [Example 158, Chroman-6-carboxylic acid [2-(cyclopropyl-oxetan-3-yl-amino)-benzooxazol-5-yl]-amide]",2860 nM
12,"O=C(Nc1ccc2oc(N3CC(O)C3)nc2c1)c1ccc2c(c1)OCCO2 [Example 159, 2,3-Dihydro-benzo[1,4]dioxine-6-carboxylic acid [2-(3-hydroxy-azetidin-1-yl)-benzooxazol-5-yl]-amide]",1480 nM
13,"O=C(Nc1ccc2oc(N3CCC34COC4)nc2c1)c1ccc2c(c1)OCCO2 [Example 160, 2,3-Dihydro-benzo[1,4]dioxine-6-carboxylic acid [2-(6-oxa-1-aza-spiro[3.3]hept-1-yl)-benzooxazol-5-yl]-amide]",541 nM
14,"O=C(Nc1ccc2oc(N3CCC34CCC4)nc2c1)c1ccc2c(c1)OCCO2 [Example 161, 2,3-Dihydro-benzo[1,4]dioxine-6-carboxylic acid [2-(1-aza-spiro[3.3]hept-1-yl)-benzooxazol-5-yl]-amide]",665 nM
15,"O=C(Nc1ccc2oc(N3CCC34CCOC4)nc2c1)c1ccc2c(c1)OCCO2 (stereo not drawn) [Example 162, 2,3-Dihydro-benzo[1,4]dioxine-6-carboxylic acid [2-(6-oxa-1-aza-spiro[3.4]oct-1-yl)-benzooxazol-5-yl]-amide]",954 nM
16,"O=C(Nc1ccc2oc(N3CCC34CCOCC4)nc2c1)c1ccc2c(c1)OCCO2 [Example 163, 2,3-Dihydro-benzo[1,4]dioxine-6-carboxylic acid [2-(7-oxa-1-aza-spiro[3.5]non-1-yl)-benzooxazol-5-yl]-amide]",1140 nM
17,"O=C(Nc1ccc2oc(N3CCCC3)nc2c1)c1ccc2c(c1)OCCO2 [Example 164, 2,3-Dihydro-benzo[1,4]dioxine-6-carboxylic acid (2-pyrrolidin-1-yl-benzooxazol-5-yl)-amide]",1280 nM

row,Compound,IC50
1,"O=C(Nc1ccc2oc(N3CCCC34COC4)nc2c1)c1ccc2c(c1)OCCO2 [Example 165, 2,3-Dihydro-benzo[1,4]dioxine-6-carboxylic acid [2-(2-oxa-5-aza-spiro[3.4]oct-5-yl)-benzooxazol-5-yl]-amide]",764 nM
2,"O=C(Nc1ccc2oc(N3CCCCC3)nc2c1)c1ccc2c(c1)OCCO2 [Example 166, 2,3-Dihydro-benzo[1,4]dioxine-6-carboxylic acid (2-piperidin-1-yl-benzooxazol-5-yl)-amide]",1500 nM
3,"O=C(Nc1ccc2oc(N3CCC(O)CC3)nc2c1)c1ccc2c(c1)OCCO2 [Example 167, 2,3-Dihydro-benzo[1,4]dioxine-6-carboxylic acid [2-(4-hydroxy-piperidin-1-yl)-benzooxazol-5-yl]-amide]",1220 nM
4,"O=C(Nc1ccc2oc(N3CCCC(F)(F)C3)nc2c1)c1ccc2c(c1)OCCO2 [Example 168, 2,3-Dihydro-benzo[1,4]dioxine-6-carboxylic acid [2-(3,3-difluoro-piperidin-1-yl)-benzooxazol-5-yl]-amide]",1140 nM
5,"COC1CCN(c2nc3cc(NC(=O)c4ccc5c(c4)OCCO5)ccc3o2)CC1 [Example 169, 2,3-Dihydro-benzo[1,4]dioxine-6-carboxylic acid [2-(4-methoxy-piperidin-1-yl)-benzooxazol-5-yl]-amide]",793 nM
6,"O=C(Nc1ccc2oc(N3CCC(F)(F)CC3)nc2c1)c1ccc2c(c1)OCCO2 [Example 170, 2,3-Dihydro-benzo[1,4]dioxine-6-carboxylic acid [2-(4,4-difluoro-piperidin-1-yl)-benzooxazol-5-yl]-amide]",899 nM
7,"O=C(Nc1ccc2oc(N3CCCC4(COC4)C3)nc2c1)c1ccc2c(c1)OCCO2 [Example 171, 2,3-Dihydro-benzo[1,4]dioxine-6-carboxylic acid [2-(2-oxa-6-aza-spiro[3.5]non-6-yl)-benzooxazol-5-yl]-amide]",792 nM
8,"O=C(Nc1ccc2oc(N3CCC4(CC3)COC4)nc2c1)c1ccc2c(c1)OCCO2 [Example 172, 2,3-Dihydro-benzo[1,4]dioxine-6-carboxylic acid [2-(2-oxa-7-aza-spiro[3.5]non-7-yl)-benzooxazol-5-yl]-amide]",8850 nM
9,"O=C(Nc1ccc2oc(N3CCOCC3)nc2c1)c1ccc2c(c1)OCCO2 [Example 173, 2,3-Dihydro-benzo[1,4]dioxine-6-carboxylic acid (2-morpholin-4-yl-benzooxazol-5-yl)-amide]",1420 nM
10,"CN1CCN(c2nc3cc(NC(=O)c4ccc5c(c4)OCCO5)ccc3o2)CC1 [Example 174, 2,3-Dihydro-benzo[1,4]dioxine-6-carboxylic acid [2-(4-methyl-piperazin-1-yl)-benzooxazol-5-yl]-amide]",1390 nM
11,"CCN(CC)c1nc2cc(NC(=O)c3ccc4c(c3)OCCO4)ccc2o1 [Example 175, 2,3-Dihydro-benzo[1,4]dioxine-6-carboxylic acid (2-diethylamino-benzooxazol-5-yl)-amide]",1350 nM
12,"O=C(Nc1ccc2oc(N(C3CC3)C3COC3)nc2c1)c1ccc2c(c1)OCCO2 [Example 176, 2,3-Dihydro-benzo[1,4]dioxine-6-carboxylic acid [2-(cyclopropyl-oxetan-3-yl-amino)-benzooxazol-5-yl]-amide]",2970 nM
13,"CN1CCOc2ccc(C(=O)Nc3ccc4oc(N5CC(O)C5)nc4c3)cc21 [Example 177, 4-Methyl-3,4-dihydro-2H-benzo[1,4]oxazine-6-carboxylic acid [2-(3-hydroxy-azetidin-1-yl)-benzooxazol-5-yl]-amide]",6870 nM
14,"CN1CCOc2ccc(C(=O)Nc3ccc4oc(N5CC(F)(F)C5)nc4c3)cc21 [Example 178, 4-Methyl-3,4-dihydro-2H-benzo[1,4]oxazine-6-carboxylic acid [2-(3,3-difluoro-azetidin-1-yl)-benzooxazol-5-yl]-amide]",21800 nM
15,"CN1CCOc2ccc(C(=O)Nc3ccc4oc(N5CCC56CCC6)nc4c3)cc21 [Example 179, 4-Methyl-3,4-dihydro-2H-benzo[1,4]oxazine-6-carboxylic acid [2-(1-aza-spiro[3.3]hept-1-yl)-benzooxazol-5-yl]-amide]",1740 nM
16,"CN1CCOc2ccc(C(=O)Nc3ccc4oc(N5CCC56COC6)nc4c3)cc21 [Example 180, 4-Methyl-3,4-dihydro-2H-benzo[1,4]oxazine-6-carboxylic acid [2-(6-oxa-1-aza-spiro[3.3]hept-1-yl)-benzooxazol-5-yl]-amide]",1770 nM
